In brackets after ≈: the same amount, converted by molar mass.
What was measured:
Type in all cases: functional
L1210 = experiment: Cytotoxicity against mouse L1210 cells; settings: read-out: ED50 (the source's name)
A549 = experiment: Cytotoxicity against human A549 cells; settings: read-out: ED50 (the source's name)
P388 = experiment: Cytotoxicity against mouse P388 cells; settings: read-out: ED50 (the source's name)
KB = experiment: Cytotoxicity against human KB cells at 0.5 ug/ml

With COc1c(CC=C(C)C)c(O)c([C@H](CC(C)C)c2c(O)c(CC=C(C)C)c(O)c(C(C)=O)c2O)c(O)c1C(C)=O [ACROVESTONE] the EC50 (L1210) was 2.95 µg/mL (≈ 5.32 µM), the EC50 (A549) was 0.98 µg/mL (≈ 1.77 µM) and the EC50 (P388) was 3.28 µg/mL (≈ 5.91 µM). The inhibition at 0.5 µg/mL (KB) was 100%.
